According to patent EP0563345B1, “NOVEL 4-ARYLPIPERAZINES AND 4-ARYLPIPERIDINES” (MCNEILAB, INC., priority 1991, dated 1993):
Counter-ions that a name gives are not always drawn. Like-named read-outs stand apart in the source and are kept apart here.

What was measured:
[1] = target: T1, D-2 (dopamine-2) receptors (Rattus norvegicus, UniProt P61169); test: biochemical; type: binding, male, Wistar rats; conditions: rat striatum P2 fraction, 3H-spiperone 0.05 nM; read-out: Receptor Binding (Ki nM) D2
T1 construct: The D2 assay employed a P2 fraction from the striatum, the ligand ^3H-spiperone at a concentration of 0.05 nM; from tissue; host or cells: rat striatum, P2 fraction (synaptosomal membranes), male Wistar rats
T1 sequence (P61169 whole entry): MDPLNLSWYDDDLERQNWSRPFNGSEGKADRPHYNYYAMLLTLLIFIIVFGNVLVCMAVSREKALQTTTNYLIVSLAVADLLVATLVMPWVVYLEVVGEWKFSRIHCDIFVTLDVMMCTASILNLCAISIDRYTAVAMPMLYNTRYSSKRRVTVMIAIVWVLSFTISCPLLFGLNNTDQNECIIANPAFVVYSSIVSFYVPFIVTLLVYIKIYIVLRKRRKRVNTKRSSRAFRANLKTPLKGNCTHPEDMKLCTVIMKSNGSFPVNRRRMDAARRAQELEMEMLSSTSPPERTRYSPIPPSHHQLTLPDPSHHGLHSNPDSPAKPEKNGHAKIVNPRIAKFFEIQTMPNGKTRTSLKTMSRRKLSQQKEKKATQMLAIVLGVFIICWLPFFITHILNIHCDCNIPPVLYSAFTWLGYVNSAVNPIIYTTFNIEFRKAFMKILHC
Protocol: The dopamine D2 binding activity of compounds was determined using a P2 fraction (synaptosomal membranes) prepared from male, Wistar rats.
The data from this assay were analyzed by calculating the percent inhibition of the binding of the tritiated ligands by given concentrations of the test compound. Kl values, where given, were obtained from the logit analysis of concentration-inhibition curves.

[2] = system: Male, Fischer 344 rats; test: Block of Conditioned Avoidance Responding (Rat) test (CAR); conditions: for CAR 15 mg/kg IP Administration (% change CAR) / CAR 5 mg/kg IP Administration (% change CAR): negative number = blockade of CAR
Excerpt: Apparatus: Rat operant chambers, housed within sound attenuated booths, both from Capden Instruments Ltd., were used in this test. The test chamber (8" H x […] D) is constructed of aluminum and plexiglass with floor grid bars of stainless-steel (1/8" O.D.) spaced 9/16" apart. A stainless-steel operation level 1-1/2" wide projects 3/4" into the chamber and is positioned 2-2/8" above the grid floor. The shock stimulus is delivered via the grid floor by a Coulbourn Instruments solid state module. The parameters of the test and the collection of data are controlled automatically.
The rats are trained for two weeks to approach criterion levels in the avoidance test (90% avoidance rate). One-hour training sessions are run at about the same time each day for four or five days a week. The training session consists of 120 trials, with the conditioned stimuli presented every 30 sec. A trial begins with presentation of the conditioned stimuli (a light and a tone). If the rat responds by depressing the operant lever during the 15-second presentation of the conditioned stimuli, the trial is terminated and the animal is credited with a CAR. Failure to respond during the conditioned stimuli causes the presentation of the unconditioned stimulus (UCS), a 0.7 mA shock which is accompanied by a light and tone for five seconds. If the rat depressed the lever within the ten-second period, the shock and trial are terminated and an escape response recorded. If the rat fails to depress the lever during the UCS (shock), the trial is terminated after ten seconds of shock and the absence of a response is scored as a failure to escape. Intertrial level presses have no effect. If a rat performs at the 90% CAR level for two weeks, it is then run twice a week on the test schedule (see below) until baseline performance stabilized.
Trained rats are run in a one-hour session on two consecutive days at the same time and in the same test chamber each day. The sessions consist of 60 trials, one every minute. The conditioned stimuli are presented for 15 sec (maximum) and the unconditioned stimuli five sec (maximum). On Day 1, a vehicle solution is administered to the rats at a time preceding the trial run corresponding to the pretreatment time for the test compound. The route of administration and the volume of vehicle are also matched to that of the test compound.
The percent change in CAR on the drug treatment day compared to vehicle pretreatment day is the key measure. The percent change (% change) in CAR is determined using the following formula: % change CAR = ((% CAR for Day 2/% CAR for Day 1) x 100)-100 [formula]
A negative number indicates a blockade of CAR, whereas a positive number would indicate increased CAR. The test results are reported as the mean % change for the group of rats. Failure to escape, a measure of the general sedative potential of the compound, was calculated for each animal as follows: % Failures = # of Failures to Escape/# of trials [formula]
The % failures, viz., loss of escape, is also reported as a group mean. Failures to escape are monitored closely and a session is terminated if ten failures occurred.
In the Tables and formulas therein, OiPr is isopropoxy, Me is methyl, MeO is methoxy, Et is ethyl, Ph is phenyl, n-Bu is normal butyl, cC6H11 is cyclohexyl, BOC is t-butyloxycarbonyl, Ac is acetyl, and NT is not tested in that partcular test. The escape loss numbers are shown at CAR 5 mg/kg unless otherwise noted.

[3] = system: Male Charles-River rats; test: Rat Glass Bead Test (propulsive motility of the distal colon); type: in vivo; conditions: mean expulsion time of glass bead
Protocol: The rat glass bead test is used to evaluate the action of compounds on propulsive motility of the distal colon. Male Charles-River rats weighing 50-90 grams are fasted for at least 18 hours in individual cages with water provided. Groups of rats are then dosed by the indicated route at the appropriate pretreatment time. A 4 mm glass bead is then inserted 3.5 cm into the distal colon through the anus using a 4 mm diameter glass rod. Rats are then placed in open top glass jars and observed for 60 minutes. The time for expulsion of the bead is noted for each rat. Rats not expelling the bead after 60 minutes are necropsied and the presence of the bead in the colon confirmed. […] Statistical analysis is done using one way analysis of variance and Fisher's LSD comparison. A probability of less than 0.05 is considered to be statistically significant.

[4] = system: male, Sprague-Dawley rats; test: Catalepsy Test in Rats; conditions: 50 mg/kg IP
Protocol: The catalepsy test is taken to evaluate the liability of anti-psychotics to produce extra-pyramidal side effects.
The forepaws of male, Sprague-Dawley rats obtained from Charles River (170-240 g) were gently placed on a black cork (3.5 cm high) and the time until the forepaw was removed was recorded. Each rat was given three trials with a maximum time of 60 sec on the cork. The sum of the three trials was taken as the score for each rat. Percent catalepsy was defined as the percent of 180 sec (maximum time) that a rat permitted its forepaw to rest on the cork. […] In each test session, two control groups were used; animals treated with saline (or vehicle) served as a negative control and animals treated with haloperidol were a positive control.

[5] = system: apomorphine-induced emesis in the dog; test: Block of Apomorphine-Induced Emesis In Dogs; type: in vivo; conditions: for ED50: Canis lupus familiaris, read-out: ED50 and 95% confidence limits, apomorphine HCl 1 mg/kg s.c.
Protocol: This latter test is used in the preclinical evaluation of antipsychotics, and it also implies that the compounds could be used clinically for the treatment of emesis.
This procedure was modified from that described in Janssen, P. A. J.; Niemegeers, C. J. E.; Schellekens, K. Arzn.-Forch. […] The animals were treated with a test dose of apomorphine HCI to produce retching, and the effectiveness of a test compound in blocking that retching is determined. […] Following one of several pretreatments, a challenge dose of 1 mg/kg apomorphine HCl s.c. was given and the number of retches that occurred during the following 20 min period was recorded. At the start of the series, and after one week on testing, all dogs were pretreated with saline before the challenge dose of apomorphine HCI was administered. All of the saline-pretreated animals retched. […] Data were analyzed to determine the ED50 dose for blocking apomorphine HCI-induced emesis.

[6] = intravenous (IV) administration
[7] = oral administration, 1 h pretreatment
[8] = oral administration, 4 h pretreatment

Structure (SMILES) | Ki [1] [nM] | Glass bead expulsion time ([3]; IP, 1.0 mg/kg) [min] | CAR 5 mg/kg IP Administration (% change CAR) [2] [%] | (Escape Loss) % failures to escape ([2]; at CAR 5 mg/kg IP) [%] | other results
O=C(c1cccc(CN2CCN(c3ccccc3C(F)(F)F)CC2)c1)N1CCCCC1 [Compound 88] | 281 | 29 |  |  | CAR 15 mg/kg IP Administration (% change CAR) [2]: -60%; (Escape Loss) % failures to escape ([2]; at CAR 15 mg/kg IP): 7%
CCOC(=O)N1CCN(C(=O)c2cccc(CN3CCN(c4ccccc4OC(C)C)CC3)c2)CC1 [Compound 63] | 121 | 41 | -20 | 1 | 
CC(C)Oc1cc(F)ccc1N1CCN(Cc2cccc(C(=O)N3CCCCCC3)c2)CC1 [Compound 79] | 12 | 17 | -86 | 44 | 
CC(C)Oc1ccccc1N1CCN(Cc2cccc(S(=O)(=O)N3CCCC(C)(C)C3)c2)CC1 [Compound 104] | 45 |  | -4 | 2 | Glass bead expulsion time ([3]; PO, 10.0 mg/kg): 50 min
CCCc1ccccc1N1CCN(Cc2cccc(C(=O)N3CCCCCC3)c2)CC1 [Compound 82] | 41 | 16 |  |  | CAR 15 mg/kg IP Administration (% change CAR) [2]: -8%; (Escape Loss) % failures to escape ([2]; at CAR 15 mg/kg IP): 0%
CC(C)Oc1ccccc1C1CCN(Cc2cccc(C(=O)N3CCCCCC3)c2)CC1 [Compound 39] | 1.2 |  | -86 | 2 | Catalepsy (%) ([4]; Pre-Reaction Time 60 min): 17.3%
O=C(CCCN1CCC(O)(c2ccc(Cl)cc2)CC1)c1ccc(F)cc1 [Haloperidol, haloperidol, reference compound] |  |  |  |  | ED50 [5, 6]: 0.023 mg/kg; ED50 [5, 7]: 0.088 mg/kg; ED50 [5, 8]: 0.028 mg/kg
CC(C)Oc1ccccc1N1CCN(Cc2cccc(C(N)=O)c2)CC1 [Compound 77] | 46 | 12 | -89 | 27 | 
COc1ccccc1N1CCN(Cc2cccc(C(=O)N3CCCCC3)c2)CC1 [Compound 84] | 29 | 42 | -98 | 42 | Catalepsy (%) ([4]; Pre-Reaction Time 60 min): 18.8%; Catalepsy (%) ([4]; Pre-Reaction Time 240 min): 33.9%
COc1ccccc1N1CCN(Cc2cccc(C(=O)N3CCCCCCC3=O)c2)CC1 [Compound 86] | 121 | 22 |  |  | CAR 15 mg/kg IP Administration (% change CAR) [2]: -27%; (Escape Loss) % failures to escape ([2]; at CAR 15 mg/kg IP): 17%
CCCCN(C)C(=O)c1cccc(CN2CCN(c3ccccc3OC(C)C)CC2)c1 [Compound 70] | 15 | 14 | -68 | 2 | 
CC(C)Oc1ccccc1N1CCN(Cc2cccc(C(=O)N3[C@H](C)CCC[C@@H]3C)c2)CC1 [Compound 59, 1-[3-[[4-[2-(1-Methylethoxy)phenyl]-1-piperazinyl]methyl]-benzoyl]-2,6-dimethylpiperidine hydrochloride (3:2)] | 7.2 | 43 | -72 | 10 | 
CC(C)Oc1ccccc1N1CCN(Cc2ccccc2C(=O)N2CCCCC2)CC1.Cl.Cl [Compound 111, 1-[2-[[4-[2-(1-Methylethoxy)phenyl]-1-piperazinyl]methyl]benzoyl]piperidine Dihydrochloride] |  | 11 |  |  | Catalepsy (%) ([4]; Pre-Reaction Time 60 min): 52%; Catalepsy (%) ([4]; Pre-Reaction Time 240 min): 50.7%
CC(C)Oc1ccccc1N1CCN(Cc2cccc(C(=O)N3CCCCCC3)c2)CC1.Cl [Compound 54, Hexahydro-1-[3-[[4-[2-(1-methylethoxy)phenyl]-1-piperazinyl]methyl]-benzoyl]-1H-azepine monohydrochloride] |  | 16 | -88 | 5 | ED50 [5, 6]: 0.019 mg/kg; ED50 [5, 7]: 0.047 mg/kg; ED50 [5, 8]: 0.251 mg/kg; inhibition of apomorphine-induced emesis in the dog ([5]; dog, in vivo): particularly potent inhibitors
O=C(c1cccc(CN2CCN(c3ccccc3Cl)CC2)c1)N1CCCCCC1 [Compound 93] | 18 | 25 | -23 | 0 | Catalepsy (%) ([4]; Pre-Reaction Time 60 min): 20.0%; Catalepsy (%) ([4]; Pre-Reaction Time 240 min): 1.9%
COc1cc2c(cc1OC)CN(C(=O)c1cccc(CN3CCN(c4ccccc4OC(C)C)CC3)c1)CC2 [Compound 60] | 11 | 18 |  |  | CAR 15 mg/kg IP Administration (% change CAR) [2]: -93%; (Escape Loss) % failures to escape ([2]; at CAR 15 mg/kg IP): 7%
CC(C)Oc1cc(F)ccc1N1CCN(Cc2cccc(C(=O)N3CCOCC3)c2)CC1 [Compound 80] | 79 | 14 | -91 | 14 | Catalepsy (%) ([4]; Pre-Reaction Time 60 min): 84.8%; Catalepsy (%) ([4]; Pre-Reaction Time 240 min): 62.0%
CC(C)Oc1ccccc1N1CCN(Cc2cccc(C(=O)N3CCCC(C)(C)C3)c2)CC1 [Compound 57] | 4.8 | 22 | -86 | 25 | 
CC1CCN(C(=O)c2cccc(CN3CCN(c4ccccc4OC(C)C)CC3)c2)CC1 [Compound 58] | 9 | 29 | -81 | 9 | 
CC(C)Oc1ccccc1N1CCN(Cc2cccc(S(=O)(=O)N3CCCCC3)c2)CC1 [Compound 105] | 18 |  | -7 | 0 | Glass bead expulsion time ([3]; PO, 10.0 mg/kg): 10 min
CC(C)Oc1ccccc1N1CCN(Cc2cccc(C(=O)N3CCN(c4ccccc4)CC3)c2)CC1 [Compound 62] | 10.4 | 21 | -28 | 23 | 
